# What was measured:
# [1] = test system: collagen-induced arthritis; assay: Collagen-induced-arthritis (CIA) model in mice; type: in vivo, mouse
# Method: Male DBA mice, aged 10 weeks, were injected SC with 100 μl of Type II collagen 200 μg in complete Freund's adjuvant (CFA). On day 21 a booster injection of the same emulsion was administered. Mice were inspected daily for symptoms of clinical arthritis.
# The inflammatory intensity, presented as joint swelling, was measured by Caliper (Mitutoyo Co., Tokyo, Japan). Histopathological sections of these decalcified whole joints were stained with hematoxylin-eosin. Slides were screened for the following arthritic characteristics: inflammatory cell infiltration, synovial cell lining hyperplasia and pannus formation. The histological assessment of the knees inflammation intensity was divided to four parameters: • 1. Lymphatic follicle like formation—graded 0–4 • 2. Inflammatory cells infiltration—graded 0–4 • 3. Synovial cells hyperplasia—graded 0–4 • 4. Pannus formation—graded 0–4 The arithmetic sum of these four parameters above all together designated-“Total Arthritic Score” (Goldenberg et al, J. Rheumatol. 1: 5–11, 1983). The white blood cell (WBC) count and the serum levels of the pro-inflammatory cytokine TMF-α served as humoral markers of the immune system activation. Tumor necrosis factor-α sera level was determined, in accordance with the manufacturer's guidelines, by ELISA kit “Quantikine M” (R&D Systems, Minneapolis, Minn., USA). 4. Statistical Analysis
# Male DBA mice were treated to produce collagen-induced-arthritis as described above. Each group contained 10 animals and each experiment was conducted at least three times.
# IB-MECA (10 μg/kg) was orally administered by gavage, twice daily starting at onset of clinical arthritis. The […] control received vehicle only. The inflammatory intensity in the CIA model was determined in accordance with the increase in the mice hind paw's diameter, measured by caliper (Mitotoyo, Tokyo, Japan). The mean score in each experimental group was designated as the “Clinical Score”. […]
# The assessment of all pathologic findings were performed blind (by L. R-W and M. H) using semi-quantitative grading scales of 0 to 4 for the following parameters: […]
# [2] = test system: patients with active rheumatoid arthritis; assay: Clinical trial in humans, effect on rheumatoid arthritis; type: in vivo, human; conditions: 0.1, 1 or 4 mg twice daily orally, up to 12 weeks; in at least half of 15 patients
# From the text: Patients with active rheumatoid arthritis were chosen for the study. All chosen patients met the following criteria:
# Rheumatoid arthritis patients that were included in the study, met the following inclusion criteria: • 1. Males and females 18 years of age or older • 2. Functional Class I, II, or III by the criteria of the American College of Rheumatology • 3. Active RA, as indicated by the presence of (a) ≧6 swollen joints; AND (b) ≧29 tender joints; AND at least one of he following: (c) Westergren ESR of ≧28 mm/hour; OR (d) CRP level of >2.0 mg/dL; OR (e) morning stiffness for >45 minutes • 4. History of unsuccessful treatment (documented intolerance or lack of efficacy as determined by the Investigator) with at least 1, but no more than 4, of the following disease modifying anti-rheumatic drugs (DMARDs): methotrexate, hydroxychloroquine, sulfasalazine, oral or injectable gold, azathioprine, leflunomide, minocycline, and penicillamine, alone or in combination Protocol
# Patients included in the study were subjected to a 1 month washout period in which they ceased to take any DMARD. Following this one months washout the patients were administered twice daily with either with 0.1 mg, 1 mg of 4 mg of IB-MECA in a double-blind fashion. […]
# Disease activity was assessed using standard criteria as laid down by the American College of Rheumatology (ACR).
# Plasma half life in mice = type: in vivo, mouse
# [3] = Human studies, plasma half life (data not shown); type: in vivo
compound,measurement,setting,value
"CNC(=O)[C@H]1O[C@@H](n2cnc3c(NCc4cccc(I)c4)ncnc32)[C@H](O)[C@@H]1O [IB-MECA, N6-(3-iodobenzyl)-adenosine-5′-N-methyl-uronamide]",intensity of the arthritis,"[1]; 10 μg/kg orally, day 21 difference significant p<0.02",reduced throughout the experimental period
same,histology sections of joints,"[1]; 10 μg/kg, FIG. 7C",minimal inflammatory changes
same,histology score,"[1]; 10 μg/kg, p<0.01 vs control, FIG. 8",1.0±0.6
same,disease symptoms (ACR criteria),[2],significant improvement in disease symptoms
same,half life,Plasma half life in mice,1.5 h
same,half life in human plasma,[3],8 to 10 h

# — patent US7141553B2, “A3AR agonists for the treatment of inflammatory arthritis” (Can-Fite Biopharma Ltd. Israel, priority 2002, dated 2006)
